Source: patent US12606564B2, “Adenosine receptor antagonist compounds” (ILDONG PHARMACEUTICAL CO., LTD., priority 2019, dated 2026)

Experiments:
human recombinant A2AR = human recombinant A2AR (Homo sapiens, UniProt P29274); test: Human A2A functional cAMP assay in human recombinant A2AR stable cell line (HEK293)
Procedure: cAMP assay was performed on human recombinant A2AR stable cell line (HEK293). The cells were cultured at 37° C. and 5% CO2 with culture medium (90% DMEM+10% FBS+500 μg/mL G418). […] Then, 100 nL compounds were transferred by Echo machine with 12 doses respectively. Cells were collected with stimulation buffer (1×HBSS with 5 mM HEPES+0.05 mM IBMX+0.1% BSA) and plated the cells at the density of 5,000 cells/well, centrifuged at 600 rpm for 3 min and then incubation with compounds at room temperature for 60 min. After that, 5 μL 4× Eu-cAMP tracer solution and 5 μL 4× ULight™-anti-cAMP solution were added into the cells, centrifuged at 600 rpm for 3 min and incubated for 60 min. cAMP signal was detected with Envision. GraphPad Prism (version 6.0) was used for the data analysis.
The A2A receptor antagonistic activity of selected compounds was assessed using the cAMP assay described above.

[1] = biological target: T1, Human recombinant adenosine A1 receptors (Homo sapiens, UniProt P30542); test: Human adenosine A1 receptor binding assay with [3H] DPCPX (purine compounds, Example 2.2); details: membranes of CHO-K1 cells
T1 construct: expressed in transfected cells; host or cells: CHO-K1, membrane preparation
T1 sequence (P30542 1-326): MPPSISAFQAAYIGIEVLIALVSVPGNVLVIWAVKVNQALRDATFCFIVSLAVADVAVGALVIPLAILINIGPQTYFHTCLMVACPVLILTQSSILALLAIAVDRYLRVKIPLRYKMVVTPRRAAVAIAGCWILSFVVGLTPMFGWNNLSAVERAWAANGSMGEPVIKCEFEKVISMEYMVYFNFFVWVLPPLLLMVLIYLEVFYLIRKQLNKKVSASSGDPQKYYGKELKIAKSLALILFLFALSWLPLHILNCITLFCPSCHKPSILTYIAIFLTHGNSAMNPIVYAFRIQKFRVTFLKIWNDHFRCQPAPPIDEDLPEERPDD
Procedure: (§1) Test compound is weighed, dissolved in DMSO to make a stock solution of 10 mM, diluted with DMSO to prepare working solutions, then 100-fold diluted to the indicated concentrations. Human recombinant adenosine A1 receptors expressed in CHO-K1 cells were used to prepare membranes in incubation buffer (20 mM HEPES (4-(2-hydroxyethyl)-1-piperazineethanesulfonic acid) pH 7.4, 10 mM MgCl2, 100 mM NaCl). Test compound or vehicle (2.2 μL) was added in 200 μL of membranes and incubated with 20 μL of 1 nM [^3H] DPCPX (8-cyclopentyl-1,3-dipropylxanthine) for 90 minutes at 25° C. Non-specific binding was estimated in the presence of 100 μM R(−)-PIA ((R)—N-(1-methyl-2-phenylethyl)adenosine). The incubation was stopped by vacuum filtration onto 0.3% PEI (polyethylenimine) presoaked GF/B filters using a harvester followed by four washes with ice-cold 50 mM Tris-HCl, pH 7.4, and the radioactivity on GF/B filtermats counted in a scintillation counter (PerkinElmer Topcount™) to determine [^3H] DPCPX specifically bound. Final concentration of vehicle DMSO is 1%. Data is fitted using the non-linear curve fitting routines in Meth-IQ software (ID Business Solutions Ltd., UK).
The binding affinity of selected compounds against A1 receptor was assessed using the binding assay described above.

[2] = biological target: T2, Human recombinant adenosine A2A receptor (Homo sapiens, UniProt P29274); test: A2A receptor (A2AR) SPA binding assay with [3H] SCH58261; set-up: expressed in transfected cells; host or cells: HEK293 (HKE293 [sic]), membrane preparation; details: [3H] SCH58261 radioligand
Procedure: Test compound is weighed, then dissolved in 100% DMSO to prepare 20 mM stock solution. Dilute the stock solution with DMSO into 100× final concentration, and then use this DMSO solution to perform 3-fold serial dilution for totally 12 concentrations with DMSO. 10-fold diluting the serial dilutions with assay buffer to the working concentrations. […] SCH58261 as the radioligand. The assay buffer is prepared with DPBS containing 10 mM MgCl2. 5 μL of compound working solutions (a total of 12 concentrations starting from 1 or 3 μM, 1/3 dilution) is transferred to the wells by the 12-channel pipette. A2AR membrane is pre-incubated with adenosine deaminase for 15 min at room temperature. Then SPA beads are added and the membrane-bead suspension mixture is incubated for 30 min at room temperature with the rotary mixer. […] SCH58261 radioligand solution. Final concentration of DMSO in the A2AR SPA binding assay is 1%. Sealing the plates and incubate for 1 hr at 27° C. with vigorous mixing on a plate shaker. After 1 hr, centrifuge the plate (1000 rpm, 1 min), and settle the plate for 5 min prior to counting. The signal of radiation is measured by the Microbeta2. […] Non-specific binding refers to the wells containing reaction system with the presence of 100 μM SCH58261. The dose-response curve is fitted with GraphPad Prism 5 and IC50 values are calculated by log(inhibitor) vs. response—Variable slope program with the following formula: Y=Bottom+(Top−Bottom)/(1+10^[…] ligand concentration used in assay/radio ligand Kd)
The binding affinity of selected compounds against A2A receptor was assessed using the SPA binding assay described above.

[3] = biological target: T2, Human recombinant adenosine A2A receptor; test: Human adenosine A2A receptor binding assay with [3H] CGS-21680 (Example 4.2); details: for activity as dual antagonists of both A2A and A1 receptors (in words): summary of Table 5, binding assays of Examples 4.1 and 4.2
Procedure: Test compound is weighed, dissolved in DMSO to make a stock solution of 10 mM, diluted with DMSO to prepare working solutions, then 100-fold diluted to the indicated concentrations. Human recombinant adenosine A2A receptors expressed in HEK-293 cells were used to prepare membranes in incubation buffer (50 mM Tris-HCl, pH 7.4, 10 mM MgCl2, 1 mM EDTA, 2 U/ml Adenosine Deaminase). Test compound or vehicle (2.2 μL) was added in 200 μL of membranes and incubated with 20 μL of 50 nM [^3H] […] Non-specific binding was estimated in the presence of 50 μM NECA (5′-N-ethylcarboxamidoadenosine). The incubation was stopped by vacuum filtration onto 0.3% PEI (polyethylenimine) presoaked GF/B filters using a harvester followed by four washes with ice-cold 50 mM Tris-HCl, pH 7.4, and the radioactivity on GF/B filtermats counted in a scintillation counter (PerkinElmer Topcount™) to determine [^3H] […] Final concentration of vehicle DMSO is 1%.

[4] = biological target: T1, Human recombinant adenosine A1 receptors; test: Human adenosine A1 receptor binding assay with [3H] DPCPX (pyrazolo-pyrimidine compounds, Example 4.1); details: membranes of CHO-K1 cells, read-out: hA1 Ki
Procedure: as §1, with “1%.” for “1%. Data is fitted using the non-linear curve fitting routines in Meth-IQ software (ID Business Solutions Ltd., UK).”
Data is fitted using the non-linear curve fitting routines in Meth-IQ software (ID Business Solutions Ltd., UK).

T2 sequence (P29274 whole entry): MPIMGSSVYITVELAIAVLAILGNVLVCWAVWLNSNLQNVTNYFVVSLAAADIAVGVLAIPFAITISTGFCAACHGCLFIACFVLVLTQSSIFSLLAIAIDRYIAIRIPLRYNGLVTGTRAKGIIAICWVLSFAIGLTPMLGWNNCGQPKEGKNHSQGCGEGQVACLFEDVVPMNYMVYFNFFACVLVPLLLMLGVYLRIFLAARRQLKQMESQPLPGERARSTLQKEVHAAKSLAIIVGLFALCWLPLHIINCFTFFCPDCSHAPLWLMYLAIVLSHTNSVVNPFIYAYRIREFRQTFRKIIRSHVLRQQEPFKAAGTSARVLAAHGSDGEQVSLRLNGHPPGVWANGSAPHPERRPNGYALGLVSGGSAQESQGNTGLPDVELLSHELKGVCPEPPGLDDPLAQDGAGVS
Sequence of human recombinant A2AR (P29274 whole entry): as above

Row | IC50 (human recombinant A2AR) [nM] | Ki [1] [nM] | Ki [2] [nM] | activity as dual antagonists of both A2A and A1 receptors (in words) [3] | Ki [3] [nM] | Ki [4] [nM] | SMILES
1 |  |  |  | potent activity as dual antagonists |  |  | N#Cc1cccc(-c2nc(N)nc3c2cnn3Cc2ccc(N)cc2F)c1F [Compound 203, 3-(6-amino-1-(4-amino-2-fluorobenzyl)-1H-pyrazolo[3,4-d]pyrimidin-4-yl)-2-fluorobenzonitrile]
2 |  |  |  | potent activity as dual antagonists |  |  | Cc1cc(Cn2ncc3c(-c4cccc(C#N)c4F)nc(N)nc32)ccc1N [Compound 206, 3-(6-amino-1-(4-amino-3-methylbenzyl)-1H-pyrazolo[3,4-d]pyrimidin-4-yl)-2-fluorobenzonitrile]
3 |  |  |  | potent activity as dual antagonists |  |  | N#Cc1cccc(-c2nc(N)nc3c2cnn3Cc2c(F)cc(N)cc2F)c1 [Compound 207, 3-(6-amino-1-(4-amino-2,6-difluorobenzyl)-1H-pyrazolo[3,4-d]pyrimidin-4-yl)benzonitrile]
4 |  |  |  | potent activity as dual antagonists | < 20 | ≤ 100 | N#Cc1cccc(-c2nc(N)nc3c2cnn3Cc2c(F)cc(N)cc2F)c1F [Compound 208, 3-(6-amino-1-(4-amino-2,6-difluorobenzyl)-1H-pyrazolo[3,4-d]pyrimidin-4-yl)-2-fluorobenzonitrile]
5 |  |  |  | potent activity as dual antagonists |  |  | N#Cc1cccc(-c2nc(N)nc3c2cnn3Cc2c(F)cccc2F)c1F [Compound 213, 3-(6-amino-1-(2,6-difluorobenzyl)-1H-pyrazolo[3,4-d]pyrimidin-4-yl)-2-fluorobenzonitrile]

Continued, molecule first:

Row | SMILES | IC50 (human recombinant A2AR) [nM] | Ki [1] [nM] | Ki [2] [nM] | activity as dual antagonists of both A2A and A1 receptors (in words) [3] | Ki [3] [nM] | Ki [4] [nM]
6 | N#Cc1cccc(-c2nc(N)nc3c2ncn3Cc2ccc(N)c(C(F)(F)F)c2)c1F [Compound 111, 3-[2-amino-9-[[4-amino-3-(trifluoromethyl)phenyl]methyl]purin-6-yl]2-fluorobenzonitrile] | > 1000 | > 1000 | 10 to 100 |  |  | 
7 | N#Cc1cccc(-c2nc(N)nc3c2ncn3Cc2c(F)cccc2F)c1 [Compound 112, 3-(2-amino-9-(2,6-difluorobenzyl)-9H-purin-6-yl) benzonitrile] | < 300 | ≤ 300 | < 10 |  |  | 
8 | N#Cc1cccc(-c2nc(N)nc3c2ncn3Cc2c(F)cccc2F)c1F [Compound 113, 3-(2-amino-9-(2,6-difluorobenzyl)-9H-purin-6-yl)-2-fluorobenzonitrile] | 300 to 1000 | 300 to 1000 | 10 to 100 |  |  | 
9 | N#Cc1ccnc(-c2nc(N)nc3c2ncn3Cc2ccc(N)cc2F)c1 [Compound 120, 2-[2-amino-9-[(4-amino-2-fluoro-phenyl)methyl]purin-6-yl]pyridine-4-carbonitrile] | < 300 | 300 to 1000 | < 10 |  |  | 
10 | N#Cc1ccnc(-c2nc(N)nc3c2ncn3Cc2c(F)cc(N)cc2F)c1 [Compound 124, 2-[2-amino-9-[(4-amino-2,6-difluoro-phenyl)methyl]purin-6-yl]pyridine-4-carbonitrile] | < 300 | ≤ 300 | < 10 |  |  | 
11 | Cc1cc(Cn2cnc3c(-c4cc(C#N)ccn4)nc(N)nc32)ccc1N [Compound 128, 2-[2-amino-9-[(4-amino-3-methyl-phenyl)methyl]purin-6-yl]pyridine-4-carbonitrile] | 300 to 1000 | 300 to 1000 | < 10 |  |  | 
12 | N#Cc1ccnc(-c2nc(N)nc3c2ncn3Cc2c(F)cccc2F)c1 [Compound 132, 2-[2-amino-9-[(2,6-difluorophenyl)methyl]purin-6-yl]pyridine-4-carbonitrile] | < 300 | ≤ 300 | < 10 |  |  | 
13 | N#Cc1cccc(-c2nc(N)nc3c2cnn3Cc2ccc(N)c(C(F)(F)F)c2)c1F [Compound 211, 3-(6-amino-1-(4-amino-3-(trifluoromethyl)benzyl)-1H-pyrazolo[3,4-d]pyrimidin-4-yl)-2-fluorobenzonitrile] |  |  |  | potent activity as dual antagonists |  | 
